This note sets out measurements from ChEMBL document CHEMBL5329193, “Targeting Mycobacterium tuberculosis iron-scavenging tools: a recent update on siderophores inhibitors” (RSC Med Chem, 2023).

A word on the MIC: it is the lowest concentration found to suppress growth.

The experiment deals with Mycobacterium tuberculosis. The experiment in a line: Antitubercular activity against Multi-drug resistant Mycobacterium tuberculosis assessed as inhibition of bacterial growth incubated for 14 days by microplate alamar blue assay. The class given is functional. Conditions: 336 h, time 14 day.

Structures are written as SMILES. In brackets after ≈: the same amount, converted by molar mass.

As for `CCCCCCCCCCCCCCCCC(=O)N(O)CCCC[C@H](NC(=O)[C@@H]1COC(c2ccccc2O)=N1)C(=O)NC[C@H](CC(=O)CCCO[C@H]1O[C@@H]2O[C@@]3(C)CC[C@H]4[C@H](C)CC[C@@H]([C@H]1C)[C@@]24OO3)C(=O)N[C@H]1CCCCN(O)C1=O`, the MIC stood at 0.16 µg/mL (≈ 0.137 µM).
